How the values were obtained:
[1] = test system: plaque-forming splenic cells (PFC); assay: Primary antibody response against thymus-dependent antigen (PFC, Jerne plaque assay); type: in vivo, Mice B6 D2 F1; details: 25 gamma i.p. 6 days before immunisation
Source text: (§1) The following experimental tests were used: • 1. Primary antibody response against thymus-dependent antigen, evaluated as the number of plaque-forming splenic cells (PFC) Mice B6 D2 F1, antigen SRBC (red sheep corpuscles) Jerne N.K and Nordin A.A., Plaque formation in ager by single antibody-producing cells Science, 140, 405, 1963. Table A • 2. Delayed hypersensitivity against cell antigen (DTH) Mice B6 D2 F1, antigen SRBC (red sheep corpuscles) Lagrange P.H., Mackaness G.B and Miller T.E., potentiation of T-cell-mediated immunity by selective suppression of antibody formation with cyclophosphamide. J. Exp. Med., 139, 1529, 1974. Table B • 3. Macrophage cytotoxic activity against target tumour induced by Corynebacterium Parvum Mice C57 BL/6; tumour L1210 pretagged with ⁵¹Cr; attack:target ratio 80:1; tumouricide activity evaluated as release of tagging compound and expressed as % of specific cytotoxicity. Herscowitr H.B. et al., Eds., Manual of macrophage methodology, M. Dekker 1981. Table C • 4. Splenic NK (natural cytotoxic cell) activity potentiated with polynucleotide (Poly I:C) Mice C57 BL/6; tumour YAC-1; evaluation as in test 3. Herbeman R.B. Ed., "Natural cell-mediated immunity against tumors". Academic Press, 1980. Table D
The treatment was carried out during the inductive stage of the response.

[2] = test system: antigen SRBC (red sheep corpuscles); assay: Delayed hypersensitivity against cell antigen (DTH); type: in vivo, Mice B6 D2 F1; details: 1 gamma i.p. on day of immunisation
Source text: as §1, with “Table D […]” for “Table D”

Substance | % increase in PFC/spleen vs. control [1] [%] | DTH response (Table B, continuation; column head not given) [2]
Tuftsin | 65 | 
Muramyl dipeptide |  | 50
